Laboratory results as given in US7947270B2, “Removing dental plaque with krill enzymes” (Arcimboldo AB, priority 1992, dated 2011).
Where a SMILES comes first, the peptide text is derived from it.

Key:
[1] = test system: krill-derived multifunctional hydrolase; assay: protease inhibitors at pH 9.5 against hydrolase preparations; format: biochemical, antarctic krill
Procedure: The effectiveness of three protease inhibitors was tested at pH 9.5 against the three hydrolase preparations.

[2] = test system: mice with P388 murine leukemia; assay: Toxicity on mice with s.c. implanted P388 murine leukemia; format: in vivo; details: all mice in doxorubicin group except those receiving the lowest dosage
[3] = test system: mice with s.c. implanted P388 murine leukemia; assay: toxicity on mice with P388 murine leukemia
[4] = test system: krill-derived multifunctional hydrolase (Prep-8); assay: protease inhibitors against Prep-8 at pH 7.5; format: biochemical, antarctic krill
Procedure: The effectiveness of other protease inhibitors against Prep-8 was tested in a 0.1 M Tris-HCl buffer pH 7.5. Benzoyl-val-gly-arg-p-nitroanilide (“ARG-p-NA”) and succinyl-ala-pro-phe-p-nitroanilide (Phe-pNA) were used as substrates.

[5] = test system: krill-derived multifunctional hydrolase (antarctic krill), Prep-3 (eluted at pH 3), SEQ ID NO. 1 (N-terminal sequence); assay: Km determination, krill-derived multifunctional hydrolase Prep-3; format: biochemical; details: 0.1 M CAPS buffer, 2 mM Ca++, pH 9.5
Procedure: (§1) The krill-derived multifunctional hydrolase was purified by the protocol described above in Example 1C. Three preparations the krill-derived multifunctional hydrolase were prepared. The three preparations differed only in that the krill multifunctional hydrolase was eluted from the trypsin inhibitor gel with buffer at pH 3, pH 8, and pH 11, respectively. These preparations shall be termed “Prep-3,” “Prep-8,” and “Prep-11.” These preparations were dissolved in water to a concentration of 6 mg/ml.
(§2) The SDS bands were electroblotted onto PVDF membranes and sequenced through 25 cycles of Edman degradation. See, Matsudaira, J. Biol. Chem., 262: 10035-10038, 1987. […] Accordingly, it is clear that all three preparations are homogenous, although each is micro-heterogeneous at position 5. The proteolytic activity of each of the three preparations was tested against substrate benzoyl-val-gly-arg-p-nitroaniline. Hydrolysis of this substrate can be monitored at […], reflecting the release of p-nitroaniline. The profile for Prep-3 (shown with filled squares), Prep-8 (shown with open diamonds) and Prep-11 (shown with filled diamonds) are identical.

[6] = test system: krill-derived multifunctional hydrolase (antarctic krill), Prep-8 (eluted at pH 8), SEQ ID NO. 1 (N-terminal sequence); assay: Km determination, krill-derived multifunctional hydrolase Prep-8; format: biochemical; details: 0.1 M CAPS buffer, 2 mM Ca++, pH 9.5
Procedure: as §1, §2

[7] = test system: krill-derived multifunctional hydrolase (antarctic krill), Prep-11 (eluted at pH 11), SEQ ID NO. 1 (N-terminal sequence); assay: Km determination, krill-derived multifunctional hydrolase Prep-11; format: biochemical; details: 0.1 M CAPS buffer, 2 mM Ca++, pH 9.5
Procedure: as §1, §2

[8] = biological target: krill-derived multifunctional hydrolase (antarctic krill); assay: cell-based or functional assay
krill-derived multifunctional hydrolase (antarctic krill), sequence (P86599 1-25): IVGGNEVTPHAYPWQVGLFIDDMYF

[9] = test system: HL60 cells; assay: in vitro binding of HL60 cells to endothelial cells; format: cell-based, human
Procedure: Endothelial cells were first passaged onto 96 well plates at a given concentration. The endothelial cells used in the experiment are described in Edgell et al., Proc. Natl. Acad. Sci. USA (1983) 80:3734. The cells were incubated at 37° C. under a DMEM cell culture medium containing 10% fetal calf serum and under a 5% CO2 atmosphere. Then, the medium was removed and replaced with 100 μl of a suspension of 200,000 HL60 cells (a […], available from the European Cell Culture Bank under ECACC Accession No. 85011431) in RPMI medium containing 10% fetal calf serum. The cells were incubated for 30 minutes. After this, the medium was removed and the adherent cells were washed two times with DMEM medium. The relative adherence of the HL60 cells was measured by measuring the difference in optical density at 450 nm between the plates on which the cells were co-incubated and plates having endothelial cells alone.
The effect of TNFα was measured by adding TNFα at 1500 units/ml to the endothelial cells 4 hours before the incubation with HL60 cells. The effect of antibody to E-selectin was measured by adding 25 μg/ml of monoclonal antibody BBAZ (R&D Systems Europe, Oxford, England) to the HL60 cells. The results of the experiments were: […]
The number of HL60 cells was determined by subtracting the cell numbers for control plates having only endothelial cells. […]

[10] = Prep-11, pH 9.5, inhibitor 1 μM
[11] = substrate Arg-pNA, inhibitor 10 μM, pH 7.5
[12] = substrate Phe-pNA, inhibitor 10 μM, 0.1 M Tris-HCl pH 7.5
[13] = substrate Arg-pNA, inhibitor 0.2 μM, pH 7.5
[14] = substrate Phe-pNA, inhibitor 0.2 μM, pH 7.5

## CC(C)C[C@H](NC(=O)[C@@H](NC(=O)N[C@@H](Cc1ccccc1)C(=O)O)[C@@H]1CCN=C(N)N1)C(=O)N[C@H](C=O)Cc1ccccc1 [Chymostatin]
[1]; Prep-3, pH 9.5, inhibitor 1 μM
  % activity remaining: 0%
[1]; Prep-8, pH 9.5, inhibitor 1 μM
  % activity remaining: 0%
[1]; [10]
  % activity remaining: 0%

## COc1cccc2c1C(=O)c1c(O)c3c(c(O)c1C2=O)C[C@@](O)(C(=O)CO)C[C@@H]3O[C@H]1C[C@H](N)[C@H](O)[C@H](C)O1 [DOX, doxorubicin]
[2]
  weight loss and death of mice: lost weight and died
[3]; 2.5 mg/kg i.p. daily, 9 consecutive days
  Toxic death: 6/6
[3]; all doses
  death and weight loss (summary): all mice in the doxorubicin group, except for those receiving the lowest dosage, lost weight and died

## CC(C)C[C@H](NC(=O)N[C@H](C(=O)N[C@@H](CCC(N)=O)C(=O)N[C@@H](C)C=O)[C@@H]1CCNC(=N)N1)C(=O)O [Elastatinal]
[4]; [11]
  Activity remaining, %: 100%
[4]; [12]
  Activity remaining, %: 100%

## CC(C)C[C@H](NP(=O)(O)O[C@@H]1O[C@@H](C)[C@H](O)[C@@H](O)[C@H]1O)C(=O)N[C@@H](Cc1c[nH]c2ccccc12)C(=O)O [Phosphoramidon]
[4]; [11]
  Activity remaining, %: 87%
[4]; [12]
  Activity remaining, %: 94%

## CC(C)[C@H](NC(=O)c1ccccc1)C(=O)NCC(=O)N[C@@H](CCCNC(=N)N)C(=O)Nc1ccc([N+](=O)[O-])cc1 [benzoyl-pal-gly-arg-p-nitroanilide] (HELM PEPTIDE1{[O=C(c1ccccc1)[*:2]].V.G.R.[O=[N+]([O-])c1ccc(N[*:1])cc1]}$$$$V2.0)
[5]
  Km: 210 ± 8 µM
[6]
  Km: 210 ± 8 µM
[7]
  Km: 230 ± 13 µM

## C[C@H](NC(=O)CCC(=O)O)C(=O)N[C@@H](C)C(=O)N1CCC[C@H]1C(=O)N[C@@H](Cc1ccccc1)C(=O)Nc1ccc([N+](=O)[O-])cc1 [succinyl-ala-ala-pro-phe-p-nitroanilide] (HELM PEPTIDE1{[O=C(O)CCC(=O)[*:2]].A.A.P.F.[O=[N+]([O-])c1ccc(N[*:1])cc1]}$$$$V2.0)
[5]
  Km: 260 ± 50 µM
[6]
  Km: 270 ± 50 µM
[7]
  Km: 270 ± 40 µM

## Anti-Thrombin III [listing 1 of 2 here]
[4]; [13]
  Activity remaining, %: 4%
[4]; [14]
  Activity remaining, %: 2%

## Anti-Thrombin III [listing 2 of 2 here]
[8]
  Activity remaining, % of Prep-8 with 0.2 µM inhibitor, substrate Arg-pNA, pH 7.5 (% activity remaining): 4
  Activity remaining, % of Prep-8 with 0.2 µM inhibitor, substrate Phe-pNA, pH 7.5 (% activity remaining): 2

## Bovine pancreatic trypsin inhibitor
[1]; Prep-3, pH 9.5, inhibitor 1 μM
  % activity remaining: 2%
[1]; Prep-8, pH 9.5, inhibitor 1 μM
  % activity remaining: 1%
[1]; [10]
  % activity remaining: 1%

## Eglin C fragment (peptide)
[8]
  Activity remaining, % of Prep-8 with 8.4 µM inhibitor, substrate Phe-pNA, pH 7.5 (% activity remaining): 100

## TNFα
[9]; Expt 2: endothelial cells pretreated with TNFα
  HL60 cell number: 43,990
[9]; Expt 2: endothelial cells pretreated with TNFα 1500 units/ml 4 hours
  Absorbance (increase over endothelial cells alone): 0.444

## α-proteinase inhibitor
[8]
  Activity remaining, % of Prep-8 with 0.2 µM inhibitor, substrate Arg-pNA, pH 7.5 (% activity remaining): 0
  Activity remaining, % of Prep-8 with 0.2 µM inhibitor, substrate Phe-pNA, pH 7.5 (% activity remaining): 0

## α-proteinase inhibitor: protease inhibitor
[4]; [13]
  Activity remaining, %: 0%
[4]; [14]
  Activity remaining, %: 0%

B1: α-anti-chymotrypsin (protein, UniProt P01011 24-423, looked up, species assumed)
Alpha-1-antichymotrypsin: HPNSPLDEENLTQENQDRGTHVDLGLASANVDFAFSLYKQLVLKAPDKNVIFSPLSISTALAFLSLGAHNTTLTEILKGLKFNLTETSEAEIHQSFQHLLRTLNQSSDELQLSMGNAMFVKEQLSLLDRFTEDAKRLYGSEAFATDFQDSAAAKKLINDYVKNGTRGKITDLIKDLDSQTMMVLVNYIFFKAKWEMPFDPQDTHQSRFYLSKKKWVMVPMMSLHHLTIPYFRDEELSCTVVELKYTGNASALFILPDQDKMEEVEAMLLPETLKRWRDSLEFREIGELYLPKFSISRDYNLNDILLQLGIEEAFTSKADLSGITGARNLAVSQVVHKAVLDVFEEGTEASAATAVKITLLSALVETRTIVRFNRPFLMIIVPTDTQNIFFMSKVTNPKQA
[8]
  Activity remaining, % of Prep-8 with 0.2 µM inhibitor, substrate Arg-pNA, pH 7.5 (% activity remaining): 7
  Activity remaining, % of Prep-8 with 0.2 µM inhibitor, substrate Phe-pNA, pH 7.5 (% activity remaining): 1
[4]; [13]
  Activity remaining, %: 7%
[4]; [14]
  Activity remaining, %: 1%
